Results taken from ChEMBL document CHEMBL1212716, “Impact of linker strain and flexibility in the design of a fragment-based inhibitor” (Nat Chem Biol, 2009).

Columns and labels:
[1] = target: T1, Uracil-DNA glycosylase (Homo sapiens, UniProt P13051); assay: Inhibition of human uracil DNA glycosylase using fluorescent DNA substrate
[2] = target: T1, Uracil-DNA glycosylase; assay: Inhibition of human uracil DNA glycosylase at […] using fluorescent DNA substrate

T1 sequence (P13051 whole entry): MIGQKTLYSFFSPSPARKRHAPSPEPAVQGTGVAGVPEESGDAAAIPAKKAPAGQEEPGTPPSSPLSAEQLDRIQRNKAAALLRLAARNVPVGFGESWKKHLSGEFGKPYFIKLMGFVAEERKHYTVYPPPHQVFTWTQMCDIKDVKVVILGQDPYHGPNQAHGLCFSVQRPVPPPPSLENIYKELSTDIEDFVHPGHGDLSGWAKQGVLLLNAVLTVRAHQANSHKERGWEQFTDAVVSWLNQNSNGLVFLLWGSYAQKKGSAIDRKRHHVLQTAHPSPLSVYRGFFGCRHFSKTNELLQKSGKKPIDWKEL

Row | SMILES | Ki [1] [mM] | inhibition [2] [%]
1 | NOCCCNCc1cc(=O)[nH]c(=O)[nH]1 | 0.7 | 
2 | NCCCO/N=C/c1cc(=O)[nH]c(=O)[nH]1 | 0.75 | 
3 | O=Cc1cccc(C(=O)O)c1 [3-FORMYLBENZOIC ACID] | 10 | 
4 | NOCCCNCc1cccc(C(=O)O)c1 | 16 | 18
5 | NCCCO/N=C/c1cccc(C(=O)O)c1 | 10 | 25
